EC50 data for 16 compounds are collected here from US9586978B2, “Anti-viral compounds” (AbbVie Inc., priority 2009, dated 2017).

The EC50 is the concentration giving half of the maximal effect.

Assay type in all cases: cell-based, Hepatitis C virus
The test system of one assay is HCV genotype 1a replicon. The assay is described as follows: HCV genotype 1a replicon assay. The note with it: Hepatitis C virus. An excerpt:
(§1) [drawing 14] employs a biphenyl linker between the imidazole moieties. See WO2008021927(BMS). The EC50 values of BMS-790052 against different HCV genotypes were shown by Nettles et al., “BMS-790052 is a First-in-class Potent Hepatitis C Virus (HCV) NS5A Inhibitor for Patients with Chronic HCV Infection: Results from a Proof-of-concept Study”, 59th Annual Meeting of the American Association for the Study of Liver Diseases (Oct. 31-Nov. 1, 2008, San Francisco, Calif.; www.natap.org/2008/AASLD/AASLD_06.htm). […] See also Gao et al., NATURE 465:96-100 (2010). The compounds in Table 1 use different linkers between the imidazole moieties. Table 1 depicts the EC50 values of these compounds when tested using respective replicon assays in the presence of 5% (v/v) fetal bovine serum (FBS).
(§2) Table 2 compares compounds containing unsubstituted benzimidazole to those containing halo-substituted benzimidazole. Anti-viral activities were assessed using wild-type replicons (e.g., 1b WT or 1a WT) as well as replicons containing specific NS5A mutations (e.g., 1b L28T, 1b Y93H, 1a L31V, 1a Y93C, 1a M28V, or 1a Q30E) in the absence of FBS.
(§3) Table 3 compares compounds with different linkers between the benzimidazole moieties. Anti-viral activities were determined using 1a and 1b replicon assays. “HP” refers to human plasma. […] As compared to the phenyl linker
In general terms: A replicon is a self-replicating genome or part of one, used to study replication in cells.

The next assay deals with HCV genotype 1b replicon. Description: HCV genotype 1b replicon assay. The note with it: Hepatitis C virus.
Excerpt: as §1, §2, §3

For the next assay, the system named is HCV genotype 4a replicon. The assay is described as follows: HCV genotype 4a replicon assay. The note with it: Hepatitis C virus, absence of human plasma; Table 5; read-out: EC50 (nM, in the absence of HP) 4a.
Excerpt: as §1

A further assay has as its system HCV genotype 2b replicon. The assay is described as follows: HCV genotype 2b replicon assay. The note with it: Hepatitis C virus, absence of human plasma; Table 5; read-out: EC50 (nM, in the absence of HP) 2b.
Excerpt: as §1

For the next assay, the system named is HCV genotype 2a replicon. The assay is described as follows: HCV genotype 2a replicon assay. The following applies: Hepatitis C virus, absence of human plasma; Table 5; read-out: EC50 (nM, in the absence of HP) 2a.
Excerpt: as §1

The subject of a further assay is HCV genotype 3a replicon. Description: HCV genotype 3a replicon assay. The note with it: Hepatitis C virus, read-out: EC50 (nM, in the absence of HP) 3a, absence of human plasma; Table 5.
Excerpt: as §1

The mark [1] stands for this setting: 5% FBS and 40% human plasma, Table 3, read-out: EC50 (nM, in the presence of 5% FBS and 40% HP) 1a.
Where [2] appears, read: 5% FBS, Table 3, read-out: EC50 (nM, in the presence of 5% FBS) 1a.
[3] abbreviates: 5% FBS and 40% human plasma, Table 3, read-out: EC50 (nM, in the presence of 5% FBS and 40% HP) 1b.
Where [4] appears, read: 5% FBS, Table 3, read-out: EC50 (nM, in the presence of 5% FBS) 1b.
[5] abbreviates: 40% human plasma, Table 5, read-out: EC50 (nM, in the presence of 40% HP) 1a.
Where [6] appears, read: 40% human plasma, Table 5, read-out: EC50 (nM, in the presence of 40% HP) 1b.

Like-named read-outs stand apart in the source and are kept apart here.

Turning to `CCOC(=O)N[C@H](C(=O)N1CCC[C@H]1c1nc2cc(-c3ccc(-c4ccc5nc([C@@H]6CCCN6C(=O)[C@@H](NC(=O)OCC)C(C)C)[nH]c5c4)nc3)ccc2[nH]1)C(C)C`, the EC50 with HCV genotype 1a replicon (setting [1]) turned out to be 83 nM; in the assay on HCV genotype 1a replicon (setting [2]) it was 6.8 nM; in the assay on HCV genotype 1b replicon (setting [3]), 190 nM; with HCV genotype 1b replicon (setting [4]), 2.9 nM.
`COC(=O)N[C@H](C(=O)N1CCC[C@H]1c1nc2cc([C@H]3CC[C@H](c4ccc5[nH]c([C@@H]6CCCN6C(=O)[C@@H](NC(=O)OC)C(C)C)nc5c4)N3c3ccc(N4CCCCC4)c(F)c3)ccc2[nH]1)C(C)C`: the EC50 was no more than 0.05 nM in the assay on HCV genotype 4a replicon; no more than 0.05 nM in the assay with HCV genotype 2b replicon; 0.2 nM with HCV genotype 1a replicon (setting [5]); no more than 0.05 nM in the assay on HCV genotype 2a replicon; no more than 0.05 nM in the assay on HCV genotype 3a replicon; 0.4 nM in the assay on HCV genotype 1b replicon (setting [6]).
In the case of `COC(=O)N[C@H](C(=O)N1CCC[C@H]1c1nc2cc([C@H]3CC[C@H](c4ccc5[nH]c([C@@H]6CCCN6C(=O)[C@@H](NC(=O)OC)C(C)C)nc5c4)N3c3ccc(C4CC4)cc3)ccc2[nH]1)C(C)C`, the EC50 was no more than 0.05 nM in the assay with HCV genotype 4a replicon; no more than 0.05 nM with HCV genotype 2b replicon; 0.1 nM with HCV genotype 1a replicon (setting [5]); no more than 0.05 nM with HCV genotype 2a replicon; no more than 0.05 nM in the assay with HCV genotype 3a replicon; 0.3 nM with HCV genotype 1b replicon (setting [6]).
With `COC(=O)N[C@H](C(=O)N1CCC[C@H]1C(=O)Nc1ccc([C@@H]2CC[C@@H](c3ccc(NC(=O)[C@@H]4CCCN4C(=O)[C@@H](NC(=O)OC)C(C)C)cc3)N2)cc1)C(C)C`, the EC50 with HCV genotype 1a replicon (5% FBS and 40% human plasma, Table 4, read-out: EC50 (nM, in the presence of 5% FBS and 40% HP) 1a) stood at 1200 nM; in the assay with HCV genotype 1a replicon (5% FBS, Table 4, read-out: EC50 (nM, in the presence of 5% FBS) 1a), 290 nM; in the assay on HCV genotype 1b replicon (5% FBS and 40% human plasma, Table 4, read-out: EC50 (nM, in the presence of 5% FBS and 40% HP) 1b), 2400 nM; in the assay on HCV genotype 1b replicon (5% FBS, Table 4, read-out: EC50 (nM, in the presence of 5% FBS) 1b), 320 nM.
Turning to `COC(=O)N[C@H](C(=O)N1C[C@@H](OC)C[C@H]1c1nc2cc([C@H]3CC[C@H](c4ccc5[nH]c([C@@H]6C[C@H](OC)CN6C(=O)[C@@H](NC(=O)OC)C(C)C)nc5c4)N3c3ccc(C(C)(C)C)cc3)ccc2[nH]1)C(C)C`, the EC50 in the assay with HCV genotype 1a replicon (setting [5]) is 0.3 nM; in the assay on HCV genotype 1b replicon (setting [6]), 0.8 nM.
Turning to `COC(=O)N[C@H](C(=O)N1CCC[C@H]1c1nc2cc([C@H]3CC[C@H](c4ccc5[nH]c([C@@H]6CCCN6C(=O)[C@@H](NC(=O)OC)C(C)C)nc5c4)N3c3ccc(N4CCCCC4)c(Cl)c3)ccc2[nH]1)C(C)C`, the EC50 in the assay on HCV genotype 4a replicon is no more than 0.05 nM; with HCV genotype 2b replicon, no more than 0.05 nM; in the assay with HCV genotype 1a replicon (setting [5]) it was 0.2 nM; with HCV genotype 2a replicon it was no more than 0.05 nM; in the assay on HCV genotype 3a replicon it was no more than 0.05 nM; with HCV genotype 1b replicon (setting [6]) it was 0.2 nM.
For the compound `COC(=O)N[C@H](C(=O)N1CCC[C@H]1c1nc2cc([C@H]3CC[C@H](c4ccc5[nH]c([C@@H]6CCCN6C(=O)[C@@H](NC(=O)OC)C(C)C)nc5c4)N3c3ccc(C(C)(C)C)cc3)ccc2[nH]1)C(C)C`, the EC50 with HCV genotype 4a replicon was no more than 0.05 nM; in the assay on HCV genotype 2b replicon, no more than 0.05 nM; in the assay on HCV genotype 1a replicon (setting [5]), 0.1 nM; in the assay on HCV genotype 2a replicon, 0.2 nM; with HCV genotype 3a replicon, no more than 0.05 nM; in the assay with HCV genotype 1b replicon (setting [6]) it was 0.3 nM.
On to `COC(=O)N[C@H](C(=O)N1CCC[C@H]1c1nc2cc([C@H]3CC[C@H](c4ccc5[nH]c([C@@H]6CCCN6C(=O)[C@@H](NC(=O)OC)C(C)C)nc5c4)N3c3cc(F)c(N4CCCCC4)c(F)c3)ccc2[nH]1)C(C)C`, for which the EC50 is no more than 0.05 nM with HCV genotype 4a replicon; no more than 0.05 nM in the assay with HCV genotype 2b replicon; 0.1 nM in the assay on HCV genotype 1a replicon (setting [5]); no more than 0.05 nM with HCV genotype 2a replicon; no more than 0.05 nM in the assay with HCV genotype 3a replicon; 0.2 nM with HCV genotype 1b replicon (setting [6]).
Turning to `COC(=O)N[C@H](C(=O)N1CCC[C@H]1c1nc2cc([C@H]3CC[C@H](c4ccc5[nH]c([C@@H]6CCCN6C(=O)[C@@H](NC(=O)OC)C(C)C)nc5c4)N3)ccc2[nH]1)C(C)C`, the EC50 in the assay with HCV genotype 1a replicon (setting [1]) was 2500 to 8000 nM; with HCV genotype 1a replicon (setting [2]) it was greater than 250 nM; with HCV genotype 1b replicon (setting [3]) it was greater than 4500 nM; in the assay with HCV genotype 1b replicon (setting [4]), greater than 250 nM.
As to `COC(=O)N[C@H](C(=O)N1CCC[C@H]1c1nc2cc([C@H]3CC[C@H](c4ccc5[nH]c([C@@H]6CCCN6C(=O)[C@@H](NC(=O)OC)C(C)C)nc5c4)N3c3ccc(N4CCCCC4)c(C(F)(F)F)c3)ccc2[nH]1)C(C)C`, the EC50 with HCV genotype 4a replicon was no more than 0.05 nM; in the assay with HCV genotype 2b replicon, no more than 0.05 nM; in the assay on HCV genotype 1a replicon (setting [5]) it was 0.6 nM; in the assay on HCV genotype 2a replicon, 0.5 nM; with HCV genotype 3a replicon, no more than 0.05 nM; in the assay with HCV genotype 1b replicon (setting [6]), 0.3 nM.
As for `COC(=O)N[C@H](C(=O)N1CCC[C@H]1c1nc2cc([C@H]3CC[C@H](c4ccc5[nH]c([C@@H]6CCCN6C(=O)[C@@H](NC(=O)OC)C(C)C)nc5c4)N3c3ccc(N4CCCCC4)c(C#N)c3)ccc2[nH]1)C(C)C`, the EC50 is no more than 0.05 nM in the assay on HCV genotype 4a replicon; no more than 0.05 nM in the assay with HCV genotype 2b replicon; 0.4 nM with HCV genotype 1a replicon (setting [5]); 0.07 nM in the assay with HCV genotype 2a replicon; no more than 0.05 nM with HCV genotype 3a replicon; 0.5 nM in the assay with HCV genotype 1b replicon (setting [6]).
For the compound `COC(=O)N[C@H](C(=O)N1CCC[C@H]1C(=O)Nc1ccc([C@H]2CC[C@H](c3ccc(NC(=O)[C@@H]4CCCN4C(=O)[C@@H](NC(=O)OC)C(C)C)cc3)N2c2ccc(C(C)(C)C)cc2)cc1)C(C)C`, the EC50 with HCV genotype 4a replicon was no more than 0.05 nM; in the assay on HCV genotype 2b replicon, no more than 0.05 nM; in the assay with HCV genotype 1a replicon (setting [5]), 0.2 nM; in the assay on HCV genotype 2a replicon, no more than 0.05 nM; with HCV genotype 3a replicon it was no more than 0.05 nM; with HCV genotype 1b replicon (setting [6]), 0.1 nM.
`COC(=O)N[C@H](C(=O)N1CCC[C@H]1c1nc2cc([C@H]3CC[C@H](c4ccc5[nH]c([C@@H]6CCCN6C(=O)[C@@H](NC(=O)OC)C(C)C)nc5c4)N3c3cc(F)c(N4C[C@H]5CCCC[C@H]5C4)c(F)c3)ccc2[nH]1)C(C)C` [Example 4.3, methyl{(2S)-1-[(2S)-2-{5-[(2R,5R)-1-{3,5-difluoro-4-[(3aR,7aS)-octahydro-2H-isoindol-2-yl]phenyl}-5-{2-[(2S)-1-{(2S)-2-[(methoxycarbonyl)amino]-3-methylbutanoyl}pyrrolidin-2-yl]-1H-benzimidazol-5-yl}pyrrolidin-2-yl]-1H-benzimidazol-2-yl}pyrrolidin-1-yl]-3-methyl-1-oxobutan-2-yl}carbamate]: the figures for the EC50 with HCV genotype 1a replicon (setting [5]) and with HCV genotype 1b replicon (setting [6]) were 0.1 nM and 0.2 nM, respectively.
Take `COC(=O)N[C@H](C(=O)N1CCC[C@H]1c1nc2cc([C@H]3CC[C@H](c4ccc5[nH]c([C@@H]6CCCN6C(=O)[C@@H](NC(=O)OC)C(C)C)nc5c4)N3c3ccc(C4CC4)c(F)c3)ccc2[nH]1)C(C)C`: the 50% effective concentration (EC50) was no more than 0.05 nM in the assay with HCV genotype 4a replicon; no more than 0.05 nM with HCV genotype 2b replicon; 0.1 nM in the assay with HCV genotype 1a replicon (setting [5]); no more than 0.05 nM with HCV genotype 2a replicon; no more than 0.05 nM in the assay on HCV genotype 3a replicon; 0.1 nM with HCV genotype 1b replicon (setting [6]).
Turning to `COC(=O)N[C@H](C(=O)N1CCC[C@H]1c1nc2cc(-c3ccc(-c4ccc5nc([C@@H]6CCCN6C(=O)[C@@H](NC(=O)OC)C(C)C)[nH]c5c4)nc3)ccc2[nH]1)C(C)C`, the concentration for a half-maximal effect (EC50) is less than 3.2 nM with HCV genotype 1a replicon (setting [1]), less than 0.32 nM with HCV genotype 1a replicon (setting [2]), less than 3.2 nM with HCV genotype 1b replicon (setting [3]) and less than 0.32 nM with HCV genotype 1b replicon (setting [4]).
`COC(=O)N[C@H](C(=O)N1CCC[C@H]1c1nc2ccc([C@H]3CC[C@H](c4ccc5nc([C@@H]6CCCN6C(=O)[C@@H](NC(=O)OC)C(C)C)[nH]c5c4)N3c3ccc(C4CC4)cc3F)cc2[nH]1)C(C)C`: the EC50 in the assay with HCV genotype 4a replicon is no more than 0.05 nM; with HCV genotype 2b replicon, no more than 0.05 nM; in the assay on HCV genotype 1a replicon (setting [5]), 0.1 nM; in the assay with HCV genotype 2a replicon it was no more than 0.05 nM; with HCV genotype 3a replicon, no more than 0.05 nM; in the assay on HCV genotype 1b replicon (setting [6]), 0.2 nM.
